Literature values, collected in US12036203B2, “Methods of treating or reducing the risk of cardiovascular events and related diseases using SGLT-2 inhibitors” (Merck Sharp & Dohme LLC, priority 2016, dated 2024).

Conditions: type 2 diabetes at high cardiovascular risk

For `OC[C@H]1O[C@@H](c2ccc(Cl)c(Cc3ccc(O[C@H]4CCOC4)cc3)c2)[C@H](O)[C@@H](O)[C@@H]1O` [empagliflozin], the “rate of hospitalization for heart failure” value (in addition to standard of care, placebo group 4.1%) is listed as 2.7%, the “rate of death from cardiovascular causes” value (in addition to standard of care, placebo group 5.9%) is listed as 3.7% and the “rate of death from any cause” value (in addition to standard of care, placebo group 8.3%) is listed as 5.7%. The “rates of myocardial infarction or stroke” value (vs. placebo) was “no significant between-group differences”, the “relative risk reduction, death from any cause” value (vs. placebo) was 32% and the “relative risk reduction, death from cardiovascular causes” value (vs. placebo) was 38%. The “relative risk reduction, hospitalization for heart failure” value (vs. placebo) was 35%.
